Results filed as inconclusive are left out. Calls of active or inactive are those of the source.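 Rule for the calls: active = fitted IC50 within a set limit above the top dose, meaning light loss from cell killing; inconclusive = flat curve with 30 to 70% effect, or poor fit; inactive = IC50 beyond that set limit.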

We go through 5 compounds from PubChem BioAssay AID2010 (Broad Institute, 2009).

The subject of this assay is NIH3T3 viability, ATP luminescence (CellTiter-Glo), 90 h. Put plainly: NIH3T3 cell viability loss – ATP luminescence, mouse fibroblasts, counter-screen, dose response (AID 2010).
One may read the IC50 as the point on the concentration scale where inhibition reaches its midpoint. With `CC(C)N1C(=O)/C(=C\c2nc3ccccc3c(=O)n2-c2ccccc2)c2ccccc21`, the IC50 was > 6 µM (inactive). As for `C#CCOCCOCCOCCNc1nc(N2CCN(C(=O)CCCCCCCCCCNC(=O)Cn3cc(C[C@@H](C)O)nn3)CC2)nc(N2CCN(C(=O)CCCCCCCCCCNC(=O)[C@H](CCCN=C(N)N)n3cc(C[C@@H](C)CC)nn3)CC2)n1`, the figure is > 6 µM (inactive); as for `Cc1ccccc1OCc1n(CC(=O)OC2CC(C)CCC2C(C)C)c2ccccc2[n+]1C` (stereo not given), > 6 µM (inactive); as for `O=[N+]([O-])C(/C=C(\Cl)[N+](=O)[O-])=C(N1CCCCC1)N1CCCCC1`, > 6 µM (inactive). The figure for `O=[N+]([O-])C(/C=C(/Cl)[N+](=O)[O-])=C(N1CCCCC1)N1CCCCC1` is > 6 µM (inactive).
